According to article PMC9176662, “Design, synthesis, molecular modeling and biological evaluation of novel Benzoxazole-Benzamide conjugates via a 2-Thioacetamido linker as potential anti-proliferative agents, VEGFR-2 inhibitors and apoptotic inducers” (Journal of Enzyme Inhibition and Medicinal Chemistry, 2022):
Where “and” joins values, the source holds several entries; their conditions need not be identical. Equal entries are not always repeated.

Experiments:
VEGFR-2 Protein Kinase = molecular target: T1, VEGFR-2 Protein Kinase (Homo sapiens, UniProt P35968); assay: VEGFR-2 inhibitory activity (HTScan VEGF Receptor-2 Kinase Assay Kit, ELISA); assay type: biochemical; conditions: mean of three individual experiments
T1 construct: It includes active VEGFR-2 kinase; purchased HTScan VEGF Receptor-2 Kinase Assay Kit
Experimental: 2.2. VEGFR-2 Inhibitory activity
VEGFR-2 ELISA (Enzyme-Linked Immunosorbent Assay) kits (HTScan® VEGF Receptor-2 […]
phospho-tyrosine antibody) for detection of the phosphorylated form of the substrate peptide).
On a 96-well plate, a particular VEGFR-2 antibody was seeded and 100 μL of the normal solution or the tested compound tested was applied, incubated at room temperature for 2.5 h and washed. Then, 100 μL of the prepared biotin antibody was added, incubated for an additional 1 h at room temperature and washed. Following, 100 μL of streptavidin solution was added at room temperature, incubated for 45 minutes and then, 100 μL of TMB Substrate solution was applied and incubated at room temperature for 30 minutes. Finally, 50 μL stop solution was added and the absorption was measured at 450 nm instantly. The standard curve, the X -axis concentrations, and the Y-axis absorbance were drawn. […]

MCF-7 cells [1] = assay: Cell cycle analysis by DNA flow cytometry, MCF-7; assay type: cell-based, human; conditions: MCF7, 24 h, compound at its IC50 (supplement: 10 μM); for %Pre-G1: control 3.41; for %G2-M: control 16.53; for %S: control 28.33; for %G0-G1: control 55.14
Experimental: It is clearly known that generally the cytotoxic agents exert their anti-proliferative effect via cell cycle arrest at a specific phase. In the present study, due to the excellent in-vitro anti-proliferative activity of conjugates 1 and 11 against both HCT-116 and MCF-7 cancer cell lines as well as their excellent VEGFR-2 inhibitory activities, cell cycle analysis have been carried out for both compounds. […]
2.3. Cell cycle analysis.
HCT-116 and MCF-7 cells were seeded at concentrations of 1 x 10^5 cells per well in a 6-well plate, and then incubated for 24 h. The cells were treated for 24 h with vehicles (0.1 percent DMSO) or 10 μM of compounds 1 or 11. Using ice-cold, 70 percent ethanol at 4 °C, cells were harvested and fixed for 12 h. Ethanol was removed, and the cells were washed by cold PBS.
Then, the cells were incubated in 0.5 mL of PBS containing 1 mg/mL Ranse for 30 min at 37 °C.
In the dark, the cells were stained with propidium iodide for 30 min. Flow cytometer was then used to detect contents of DNA [63]. […]

HCT-116 cells = assay: Annexin V-FITC/PI apoptosis assay, HCT-116; assay type: cell-based, human; conditions: for increase in total apoptosis compared to the control: HCT-116; for %Apoptosis %Early / %Apoptosis %Late / %Necrosis: HCT-116, 48 h incubation; for %Apoptosis %Early: control 1.1; for %Apoptosis %Late: control 1.57; for %Necrosis: control 1.85
Experimental: (§1) 2.4. Annexin V-FITC/PI apoptosis assay.
(§2) For this study, annexin V-FITC / PI apoptosis detection kit was used; HCT -116 and MCF-7 cells were stained with annexin V fluorescein isothiocyanate (FITC) and propidium iodide (PI) counter-stained.1 x 10^5 HCT-116 cells were 48 h incubated with compound 1 or 11, trypsinized, washed with phosphate-buffered saline (PBS), stained in the dark at 37 °C for 15 min utes.
(§3) Finally, the cells analyzed with a cytometer of FACS Caliber flow.

MCF-7 cells [2] = assay: Annexin V-FITC/PI apoptosis assay, MCF-7; assay type: cell-based, human; conditions: for %Apoptosis %Early: control 0.47; for %Apoptosis %Late: control 1.34; for %Necrosis: control 1.6; for %Apoptosis %Total: control 3.41
Experimental: as §1, §2, §3

Bcl-2 = assay: Western blot of Bcl-2 expression in HCT-116; assay type: cell-based, human; conditions: HCT-116, Western blot, normalised to β-actin
Description: (§4) It is well known that the anti-apoptotic proteins Bcl-2 and Bcl-xL are mainly overexpressed in various types of cancer, causing survival of cancer cells and/or drug resistance. Therefore, inhibition of these proteins expression leads to cancer cell death and has been used as a strategy for anticancer drug development. In this study, the impact of compounds 1 and 11 on Bcl-2 and Bcl-xL expression in HCT-116 and MCF-7 cancer cell lines was examined using Western blot analysis and all the data were normalised to β-actin (Figure 9).
(§5) 2.5. Impact of compounds 1 and 11 on the level of anti-apoptotic markers (Bcl-2, and Bcl-xL).
(§6) Gel electrophoresis and immuno-blot analysis of proteins (Western Blot) method was used to examine the effect of compounds 1 and 11 on the level of anti-apoptotic markers (Bcl-2, and Bcl-xL). […]
(§7) The cells were then immediately frozen at −20 °C for 1 h for further lysis and collected by cell scraper and sonicated 2×10s. Total protein concentrations were determined colorimetrically using Bradford method before proceeding to the western blotting. […] Briefly, the membranes were incubated for 1 min with a mixture of equal volumes from ECL solution A and ECL solution B. The chemiluminescent signals were captured using a CCD camera-based imager (Chemi Doc imager, Biorad, USA), and the band intensities were then measured with β-actin as an internal reference protein. […]

Bcl-xL = assay: Western blot of Bcl-xL expression in MCF-7; assay type: cell-based, human; conditions: MCF-7, Western blot, normalised to β-actin
Description: as §4, §5, §6, §7

T1 sequence (P35968 20-1356): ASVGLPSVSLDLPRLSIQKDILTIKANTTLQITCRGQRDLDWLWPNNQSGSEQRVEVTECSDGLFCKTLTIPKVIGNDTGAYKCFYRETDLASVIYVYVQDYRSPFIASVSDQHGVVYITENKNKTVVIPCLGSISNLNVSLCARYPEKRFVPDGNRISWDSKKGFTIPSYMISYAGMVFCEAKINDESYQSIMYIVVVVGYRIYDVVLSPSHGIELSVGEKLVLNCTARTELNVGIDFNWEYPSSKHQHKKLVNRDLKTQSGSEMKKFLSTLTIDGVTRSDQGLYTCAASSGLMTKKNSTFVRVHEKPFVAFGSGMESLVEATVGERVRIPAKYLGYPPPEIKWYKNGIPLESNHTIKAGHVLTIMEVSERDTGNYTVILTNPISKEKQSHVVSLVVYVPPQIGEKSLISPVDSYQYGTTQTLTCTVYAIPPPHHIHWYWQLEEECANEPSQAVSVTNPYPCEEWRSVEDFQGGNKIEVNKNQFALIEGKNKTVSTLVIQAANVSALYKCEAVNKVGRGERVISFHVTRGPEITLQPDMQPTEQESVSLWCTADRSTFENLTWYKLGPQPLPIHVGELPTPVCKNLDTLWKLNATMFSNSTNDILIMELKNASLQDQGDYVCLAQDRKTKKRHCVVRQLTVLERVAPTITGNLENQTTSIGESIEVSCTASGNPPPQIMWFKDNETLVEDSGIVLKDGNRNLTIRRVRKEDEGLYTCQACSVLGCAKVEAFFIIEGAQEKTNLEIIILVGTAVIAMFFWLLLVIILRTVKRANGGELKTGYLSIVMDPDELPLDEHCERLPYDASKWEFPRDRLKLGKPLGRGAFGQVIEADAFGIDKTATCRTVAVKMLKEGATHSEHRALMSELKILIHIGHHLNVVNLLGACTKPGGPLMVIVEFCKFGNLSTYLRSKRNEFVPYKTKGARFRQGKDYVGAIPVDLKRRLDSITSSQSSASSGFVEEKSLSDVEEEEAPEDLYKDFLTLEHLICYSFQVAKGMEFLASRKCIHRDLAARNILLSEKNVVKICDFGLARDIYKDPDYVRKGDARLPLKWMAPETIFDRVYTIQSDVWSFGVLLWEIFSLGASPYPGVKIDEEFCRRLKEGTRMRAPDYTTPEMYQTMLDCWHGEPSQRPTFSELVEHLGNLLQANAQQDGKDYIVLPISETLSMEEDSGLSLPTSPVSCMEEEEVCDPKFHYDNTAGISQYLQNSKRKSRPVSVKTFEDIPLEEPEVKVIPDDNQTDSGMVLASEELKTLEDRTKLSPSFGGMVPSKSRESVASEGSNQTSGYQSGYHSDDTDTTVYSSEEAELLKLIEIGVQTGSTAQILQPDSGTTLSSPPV

O=C(CSc1nc2cc(Cl)ccc2o1)Nc1ccc(C(=O)Nc2ccc(Cl)cc2)cc1 [Compound 11]
IC50 (VEGFR-2 Protein Kinase): 360 nM and 361 nM | %Pre-G1 (MCF-7 cells [1]): 16.93% | %G2-M (MCF-7 cells [1]): 25.24% | %S (MCF-7 cells [1]): 30.92% | %G0-G1 (MCF-7 cells [1]): 43.84% | increase in total apoptosis compared to the control (HCT-116 cells): ~3.9 fold | %Apoptosis %Early (HCT-116 cells): 6.01% | %Apoptosis %Late (HCT-116 cells): 9.62% | %Necrosis (HCT-116 cells): 1.78% | total increase in apoptosis compared to the control (MCF-7 cells [2]): ~5.0 fold | %Apoptosis %Early (MCF-7 cells [2]): 4.93% | %Apoptosis %Late (MCF-7 cells [2]): 10.26% | %Necrosis (MCF-7 cells [2]): 1.74% | %Apoptosis %Total (MCF-7 cells [2]): 16.93% | Bcl-2 expression (Bcl-2): inhibited | Bcl-xL expression (Bcl-xL): inhibited

O=C(CSc1nc2ccccc2o1)Nc1ccc(C(=O)NC2CCCCC2)cc1 [Compound 1]
IC50 (VEGFR-2 Protein Kinase): 270 nM and 268 nM | %Pre-G1 (MCF-7 cells [1]): 19.78% | %G2-M (MCF-7 cells [1]): 29.62% | %S (MCF-7 cells [1]): 29.72% | %G0-G1 (MCF-7 cells [1]): 40.66% | increase in total apoptosis compared to the control (HCT-116 cells): approximately 3.4 fold | %Apoptosis %Early (HCT-116 cells): 4.86% | %Apoptosis %Late (HCT-116 cells): 8.95% | %Necrosis (HCT-116 cells): 1.55% | total increase in apoptosis compared to the control (MCF-7 cells [2]): approximately 5.8 fold | %Apoptosis %Early (MCF-7 cells [2]): 6.02% | %Apoptosis %Late (MCF-7 cells [2]): 12.17% | %Necrosis (MCF-7 cells [2]): 1.59% | %Apoptosis %Total (MCF-7 cells [2]): 19.78% | Bcl-2 expression (Bcl-2): inhibited | Bcl-xL expression (Bcl-xL): inhibited
